The text below walks through data of patent US7148013B2, “Complex of Hepatitis B virus polymerase with p11 and method for controlling movement of the complex in HepG2 cell” (Korea Institute of Science and Technology, priority 2002, dated 2006).

The subject of the assay is HBVPol/p11 complex. Kind of assay: Immunofluorescent experiment and confocal microscopy: intracellular location of HBVPol/p11 complex in HepG2 cells co-delivered with HBVPol and p11. In kind it is cell-based, human. The following applies: HepG2 cell co-delivered with HBVPol and p11. As for the experimental part: HepG2 was grown on a chamber slide charged with DMEM (supplemented with 0.1 mM non-essential amino acids and 10% FBS, culturing condition: 37° C., moisturized with a mixture of 95:5% (v/v) air and CO2), and Effectene (Qiagen) was used to deliver genes into the cell. Cells treated with EGTA and to which the gene was delivered, were washed with PBS and fixed with 100% methanol at −20° C. for 15 minutes. The slide was treated with a blocking solution (1% goat serum/PBS) at room temperature for 30 minutes and then reacted with anti-Myc rabbit (1:200) antibody against p11, anti-Flag rabbit (1:200) antibody against HBVPol, or anti-PML mouse (1:200) antibody at 4° C. for one day.
After reaction, the cells were reacted with anti-rabbit or anti-mouse goat secondary antibody, to which rhodamine or fluorscein isothiocyanate was attached, at 37° C. and then a coverslip was attached thereto with mounting solution. […]

Structures are written as SMILES.

In the case of `O=C(O)CN(CCOCCOCCN(CC(=O)O)CC(=O)O)CC(=O)O` [EGTA], the “intracellular location of HBVPol and p11” value (0.5 mM for 48 hours, FIG. 5a) was “most of HBVPol and p11 migrated into the nucleus of the cell”. As to `CC(C)[C@@H]1NC(=O)[C@H](C)OC(=O)[C@@H](C(C)C)NC(=O)[C@@H](C(C)C)OC(=O)[C@H](C(C)C)NC(=O)[C@H](C)OC(=O)[C@@H](C(C)C)NC(=O)[C@@H](C(C)C)OC(=O)[C@H](C(C)C)NC(=O)[C@H](C)OC(=O)[C@@H](C(C)C)NC(=O)[C@@H](C(C)C)OC1=O` [valinomycine], the “intracellular location of HBVPol and p11” value (30 uM for 24 hours, FIG. 5b) is “HBVPol and p11 remained in the cytoplasm of the cell”.
